The values below are quoted from earlier work in PMC4324444 (ACS Chemical Biology, 2014).

Broadly, the Ki is a dissociation constant, usually derived from enzyme kinetics or from competition with a known ligand.

Each structure is given as a SMILES string.

This series concerns the target XIAP. The conditions noted are these: read-out: binding affinity to XIAP (Ki).

On to `CN[C@@H](C)C(=O)N[C@H](C(=O)N1CC[C@H](C)[C@H]1C(=O)Nc1ccccc1-c1ncccn1)C1CCCCC1` [CS3], for which the Ki was above 30 µM.
